Laboratory results: US5047337A, “Ceramide-glycanase” (priority 1987, dated 1991)

Legend:
[1] = system: Annelid ceramide-glycanase; assay: Substrate specificity and pH optimum of annelid ceramide-glycanase from leeches and earthworms (general description); assay type: biochemical; conditions: enzyme obtained from leeches and earthworms
leech ceramide-glycanase = assay: Hydrolysis of glycolipids with leech enzyme (TLC); assay type: biochemical, leech (Hirudo medicinalis, Macrobdella decora); conditions: 30 nmol substrate, pH 4.5, sodium taurodeoxycholate 200 μg, 37° C.
Procedure: Assays were performed in 10×75 mm glass tubes. […] Glycolipid substrates included LacCer, GbOse3 Cer, GbOse4 Cer, GbOse5 Cer, nLcOse4 Cer, GM3, GM2, GM1, GD1a and GT1. After the mixture was incubated at 37° C. for a preset time, the reaction was terminated by adding 5 volumes of chloroform:methanol (2:1). The mixture was vortexed and briefly centrifuged to separate the organic phase (lower) from the aqueous phase (upper). Under this condition the enzyme protein became insoluble and stayed at the interface. […] For detection of the released oligosaccharide, the aqueous phase was analyzed by thin-layer chromatography using n-butanol:acetic acid:H2 O (2:1:1) as the developing solvent. […] The chromatograms are seen in FIGS. 2 and 3.

[2] = system: earthworm ceramide-glycanase; assay: Hydrolysis of glycolipids with earthworm enzyme (TLC); assay type: biochemical, Lumbricus terrestris; conditions: 37° C.; for release of ceramides from the glycolipid by earthworm ceramide-glycanase: one unit enzyme, 17 h, TLC; for hydrolysis of the glycolipid by earthworm ceramide-glycanase: 20 nmol substrate, pH 4.5, sodium taurodeoxycholate 400 μg, 16 hours
Procedure: The assay for ceramide-glycanase was carried out essentially according to the method described above in Example 3. […] Glycolipid substrates included LacCer, GbOse3 Cer, GT1, […] and GlcCer. […] The mixture was vortexed and centrifuged to separate the organic phase (lower) from the aqueous phase (upper). […] For the detection of the released oligosaccharide, the aqueous phase was analyzed by TLC using n-butanol:acetic acid:H2 O (2:1:1) as the developing solvent. […] The chromatograms are seen in FIGS. 5 and 6.

## 3-sulfo-lactosyl ceramide
[1]
  hydrolysis of the glycosphingolipid by annelid ceramide-glycanase: hydrolyzes

## GD1a
Leech ceramide-glycanase
  release of intact oligosaccharide from the glycolipid by leech ceramide-glycanase: liberated an intact sialic acid containing oligosaccharide
[2]
  release of ceramides from the glycolipid by earthworm ceramide-glycanase: able to release ceramides
[1]
  hydrolysis of the glycosphingolipid by annelid ceramide-glycanase: hydrolyzes

## Galα1→4GalCer [DiGalCer]
[2]
  hydrolysis of the glycolipid by earthworm ceramide-glycanase: not hydrolyzed

## galactosylceramide [GalCer]
[2]
  hydrolysis of the glycolipid by earthworm ceramide-glycanase: refractory
[1]
  hydrolysis of the glycosphingolipid by annelid ceramide-glycanase: will not generally hydrolyze

## globopentaoyl-ceramicde [GbOse5 Cer]
Leech ceramide-glycanase
  release of intact oligosaccharide from the glycolipid by leech ceramide-glycanase: able to liberate the intact oligosaccharide
[2]
  release of ceramides from the glycolipid by earthworm ceramide-glycanase: able to release ceramides
[1]
  hydrolysis of the glycosphingolipid by annelid ceramide-glycanase: hydrolyzes

## globotetraosyl-ceramide [GbOse4 Cer]
Leech ceramide-glycanase
  release of intact oligosaccharide from the glycolipid by leech ceramide-glycanase: able to liberate the intact oligosaccharide
[2]
  release of ceramides from the glycolipid by earthworm ceramide-glycanase: able to release ceramides
[1]
  hydrolysis of the glycosphingolipid by annelid ceramide-glycanase: hydrolyzes

## globotriaosyl-ceramide [GbOse3 Cer]
Leech ceramide-glycanase
  release of intact oligosaccharide from the glycolipid by leech ceramide-glycanase: able to liberate the intact oligosaccharide
[2]
  release of ceramides from the glycolipid by earthworm ceramide-glycanase: able to release ceramides
[1]
  hydrolysis of the glycosphingolipid by annelid ceramide-glycanase: hydrolyzes

## glucosylceramide [GlcCer]
[2]
  hydrolysis of the glycolipid by earthworm ceramide-glycanase: refractory
[1]
  hydrolysis of the glycosphingolipid by annelid ceramide-glycanase: will not generally hydrolyze

## lacto-N-neotetraoyl-ceramide [nLcOse4 Cer]
Leech ceramide-glycanase
  release of intact oligosaccharide from the glycolipid by leech ceramide-glycanase: able to liberate the intact oligosaccharide
[1]
  hydrolysis of the glycosphingolipid by annelid ceramide-glycanase: hydrolyzes

## lactosyl-ceramide [LacCer]
Leech ceramide-glycanase
  release of intact oligosaccharide from the glycolipid by leech ceramide-glycanase: able to liberate the intact oligosaccharide
[2]
  hydrolysis of the glycolipid by earthworm ceramide-glycanase: hydrolyzed
  release of ceramides from the glycolipid by earthworm ceramide-glycanase: able to release ceramides
[1]
  hydrolysis of the glycosphingolipid by annelid ceramide-glycanase: hydrolyzes
